# Laboratory results as given in paper PMC12669040, “Tumour-specific STING agonist synthesis via a two-component prodrug system” (Nature Chemistry, 2025).
# Where “and” joins values, the source holds several entries; their conditions need not be identical. Equal entries are not always repeated.
# How the values were obtained:
# [1] = Colorimetric alkylation rate constant assay with thiol N1; format: physicochemical; details: for remaining [A]: N1 from calibration curve (N1 in uM); for remaining [A] / remaining [B]: in µM
# [2] = Colorimetric alkylation rate constant assay with TNB^2− as non-specific thiol; format: physicochemical; design: second-order: unit not given here; details: for remaining [B]: in µM
# [3] = Time 2891 sec, [B]0 = 250, Replicates 1-3
# [4] = Time 3071 sec, [B]0 = 250, Replicates 1-3
# [5] = Time 3252 sec, [B]0 = 250, Replicates 1-3
# [6] = Time 3433 sec, [B]0 = 250, Replicates 1-3
# [7] = Time 3613 sec, [B]0 = 250, Replicates 1-3
structure (smiles),measurement,setting,value
O=C(CCl)Nc1ccccc1 [Compound C2],remaining [A],"[1]; Replicate 1, time 576 sec",80.4651
same,remaining [B],"[1]; Replicate 1, time 576 sec, [B]0 = 250",226.345
same,second-order,"[1]; Replicate 1, time 576 sec, second-order plot value",0.001085
same,remaining [A],"[1]; Replicate 1, time 606 sec",79.6386
same,remaining [B],"[1]; Replicate 1, time 606 sec, [B]0 = 250",225.519
same,second-order,"[1]; Replicate 1, time 606 sec, second-order plot value",0.001131
same,remaining [A],"[1]; Replicate 2, time 576 sec",80.4092
same,remaining [B],"[1]; Replicate 2, time 576 sec, [B]0=250",227.268
same,second-order,"[1]; Replicate 2, time 576 sec, second-order plot value",0.001046
same,remaining [A],"[1]; Replicate 2, time 606 sec",79.1621
same,remaining [B],"[1]; Replicate 2, time 606 sec, [B]0=250",226.02
same,second-order,"[1]; Replicate 2, time 606 sec, second-order plot value",0.001115
same,remaining [A],"[1]; Replicate 3, time 576 sec",81.6859
same,remaining [B],"[1]; Replicate 3, time 576 sec, [B]0=250",227.139
same,second-order,"[1]; Replicate 3, time 576 sec, second-order plot value",0.001037
same,remaining [A],"[1]; Replicate 3, time 606 sec",80.8202
same,remaining [B],"[1]; Replicate 3, time 606 sec, [B]0=250",226.273
same,second-order,"[1]; Replicate 3, time 606 sec, second-order plot value",0.001084
same,remaining [B],"[1]; time 0 sec, [B]0 = 250, replicates 1-3",247.836 and 246.58 and 246.712
same,second-order,"[1]; time 0 sec, replicates 1-3",0.0001305 and 8.4046e-5 and 0.0001345
same,remaining [B],"[1]; time 30 sec, [B]0 = 250, replicates 1-3",246.591 and 244.557 and 245.38
same,second-order,"[1]; time 30 sec, replicates 1-3",0.000185 and 0.0001335 and 0.0002172
same,remaining [B],"[1]; time 60 sec, [B]0 = 250, replicates 1-3",244.968 and 243.73 and 244.048
same,second-order,"[1]; time 60 sec, replicates 1-3",0.0002407 and 0.0001994 and 0.0002516
same,remaining [B],"[1]; time 91 sec, [B]0 = 250, replicates 1-3",243.804 and 242.562 and 242.8
same,second-order,"[1]; time 91 sec, replicates 1-3",0.0002937 and 0.0002475 and 0.000301
same,remaining [B],"[1]; time 121 sec, [B]0 = 250, replicates 1-3",243.047 and 241.251 and 241.752
same,second-order,"[1]; time 121 sec, replicates 1-3",0.0003391 and 0.0002792 and 0.0003575
same,remaining [B],"[1]; time 151 sec, [B]0 = 250, replicates 1-3",242.371 and 240.196 and 240.873
same,second-order,"[1]; time 151 sec, replicates 1-3",0.0003777 and 0.0003079 and 0.0004037
same,remaining [B],"[1]; time 182 sec, [B]0 = 250, replicates 1-3",241.478 and 239.142 and 240.023
same,second-order,"[1]; time 182 sec, replicates 1-3",0.0004154 and 0.0003461 and 0.0004506
same,remaining [B],"[1]; time 212 sec, [B]0 = 250, replicates 1-3",240.882 and 238.087 and 239.314
same,second-order,"[1]; time 212 sec, replicates 1-3",0.0004473 and 0.0003719 and 0.0004982
same,remaining [B],"[1]; time 242 sec, [B]0 = 250, replicates 1-3",239.746 and 237.004 and 238.605
same,second-order,"[1]; time 242 sec, replicates 1-3",0.0004795 and 0.0004218 and 0.000548
same,remaining [B],"[1]; time 273 sec, [B]0 = 250, replicates 1-3",238.772 and 235.921 and 237.868
same,second-order,"[1]; time 273 sec, replicates 1-3",0.0005133 and 0.0004652 and 0.0005985
same,remaining [B],"[1]; time 303 sec, [B]0 = 250, replicates 1-3",237.095 and 234.981 and 237.103
same,second-order,"[1]; time 303 sec, replicates 1-3",0.0005489 and 0.0005414 and 0.0006431
same,remaining [B],"[1]; time 333 sec, [B]0 = 250, replicates 1-3",235.255 and 233.898 and 236.026
same,second-order,"[1]; time 333 sec, replicates 1-3",0.0005997 and 0.0006273 and 0.0006953
same,remaining [B],"[1]; time 364 sec, [B]0 = 250, replicates 1-3",234.038 and 233.014 and 234.41
same,second-order,"[1]; time 364 sec, replicates 1-3",0.0006774 and 0.0006854 and 0.0007385
same,remaining [B],"[1]; time 394 sec, [B]0 = 250, replicates 1-3",232.874 and 231.988 and 233.73
same,second-order,"[1]; time 394 sec, replicates 1-3",0.0007107 and 0.0007421 and 0.0007895
same,remaining [B],"[1]; time 424 sec, [B]0 = 250, replicates 1-3",231.738 and 230.934 and 232.256
same,second-order,"[1]; time 424 sec, replicates 1-3",0.0007842 and 0.0007984 and 0.0008427
same,remaining [B],"[1]; time 454 sec, [B]0 = 250, replicates 1-3",230.764 and 230.107 and 231.378
same,second-order,"[1]; time 454 sec, replicates 1-3",0.0008288 and 0.0008475 and 0.000885
same,remaining [B],"[1]; time 485 sec, [B]0 = 250, replicates 1-3",229.871 and 229.167 and 230.13
same,remaining [B],"[1]; time 515 sec, [B]0 = 250, replicates 1-3",228.978 and 228.226 and 228.94
same,second-order,"[1]; time 515 sec, replicates 1-3",0.0009559 and 0.0009395 and 0.0009836
same,remaining [B],"[1]; time 545 sec, [B]0 = 250, replicates 1-3",227.95 and 227.314 and 227.948
same,second-order,"[1]; time 545 sec, replicates 1-3",0.001009 and 0.0009937 and 0.001032
same,remaining [B],"[2]; Replicate 1, 723 sec, [B]0 = 250",243.908
same,remaining [B],"[2]; Replicate 1, 903 sec, [B]0 = 250",243.568
same,remaining [B],"[2]; Replicate 1, 1084 sec, [B]0 = 250",243.228
same,remaining [B],"[2]; Replicate 1, 1265 sec, [B]0 = 250",242.9
same,remaining [B],"[2]; Replicate 1, 1445 sec, [B]0 = 250",242.598
same,remaining [B],"[2]; Replicate 1, 1626 sec, [B]0 = 250",242.232
same,remaining [B],"[2]; Replicate 1, 1806 sec, [B]0 = 250",241.905
same,remaining [B],"[2]; Replicate 1, 1988 sec, [B]0 = 250",241.539
same,remaining [B],"[2]; Replicate 1, 2168 sec, [B]0 = 250",241.224
same,remaining [B],"[2]; Replicate 1, 2349 sec, [B]0 = 250",240.884
same,remaining [B],"[2]; Replicate 1, 2530 sec, [B]0 = 250",240.607
same,remaining [B],"[2]; Replicate 1, 2710 sec, [B]0 = 250",240.229
same,remaining [B],"[2]; Replicate 2, 542 sec, [B]0=250",245.363
same,remaining [B],"[2]; Replicate 2, 723 sec, [B]0=250",245.048
same,remaining [B],"[2]; Replicate 2, 903 sec, [B]0=250",244.733
same,remaining [B],"[2]; Replicate 2, 1084 sec, [B]0=250",244.393
same,remaining [B],"[2]; Replicate 2, 1265 sec, [B]0=250",244.09
same,remaining [B],"[2]; Replicate 2, 1445 sec, [B]0=250",243.737
same,remaining [B],"[2]; Replicate 2, 1626 sec, [B]0=250",243.435
same,remaining [B],"[2]; Replicate 2, 1806 sec, [B]0=250",243.107
same,remaining [B],"[2]; Replicate 2, 1988 sec, [B]0=250",242.78
same,remaining [B],"[2]; Replicate 2, 2168 sec, [B]0=250",242.452
same,remaining [B],"[2]; Replicate 2, 2349 sec, [B]0=250",242.137
same,remaining [B],"[2]; Replicate 2, 2530 sec, [B]0=250",241.772
same,remaining [B],"[2]; Replicate 2, 2710 sec, [B]0=250",241.469
same,remaining [B],"[2]; Replicate 3, 723 sec, [B]0=250",245.156
same,remaining [B],"[2]; Replicate 3, 903 sec, [B]0=250",244.866
same,remaining [B],"[2]; Replicate 3, 1084 sec, [B]0=250",244.475
same,remaining [B],"[2]; Replicate 3, 1265 sec, [B]0=250",244.311
same,remaining [B],"[2]; Replicate 3, 1445 sec, [B]0=250",243.732
same,remaining [B],"[2]; Replicate 3, 1626 sec, [B]0=250",243.593
same,remaining [B],"[2]; Replicate 3, 1806 sec, [B]0=250",243.165
same,remaining [B],"[2]; Replicate 3, 1988 sec, [B]0=250",242.824
same,remaining [B],"[2]; Replicate 3, 2168 sec, [B]0=250",242.61
same,remaining [B],"[2]; Replicate 3, 2349 sec, [B]0=250",242.232
same,remaining [B],"[2]; Replicate 3, 2530 sec, [B]0=250",241.917
same,remaining [B],"[2]; Replicate 3, 2710 sec, [B]0=250",241.653
same,second-order,[2]; [3],0.0003773 and 0.0003667 and 0.0004313
same,remaining [B],[2]; [3],241.388 and 239.977 and 241.154
same,second-order,[2]; [4],0.0003928 and 0.0003885 and 0.000446
same,remaining [B],[2]; [4],240.909 and 239.662 and 240.814
same,second-order,[2]; [5],0.0004061 and 0.0003977 and 0.0004618
same,remaining [B],[2]; [5],240.708 and 239.321 and 240.524
same,second-order,[2]; [6],0.0004218 and 0.000411 and 0.0004772
same,remaining [B],[2]; [6],240.418 and 238.994 and 240.184
same,second-order,[2]; [7],0.0004369 and 0.0004267 and 0.0004915
same,remaining [B],[2]; [7],240.077
same,second-order,"[2]; Time 3794 sec, [B]0 = 250, Replicates 1-3",0.0004533 and 0.0004448 and 0.000507
same,second-order,"[2]; Time 3974 sec, [B]0 = 250, Replicates 1-3",0.0004675 and 0.0004536 and 0.0005214
same,second-order,"[2]; Time 4155 sec, [B]0 = 250, Replicates 1-3",0.0004823 and 0.0004725 and 0.0005334
same,second-order,"[2]; Time 4336 sec, [B]0 = 250, Replicates 1-3",0.0004965 and 0.0004915 and 0.0005528
same,second-order,"[2]; Time 4516 sec, [B]0 = 250, Replicates 1-3",0.0005127 and 0.0005034 and 0.0005668
same,second-order,"[2]; Time 4697 sec, [B]0 = 250, Replicates 1-3",0.0005253 and 0.000516 and 0.0005808
same,second-order,"[2]; Time 4878 sec, [B]0 = 250, Replicates 1-3",0.000541 and 0.0005322 and 0.0005962
same,second-order,"[2]; Time 5058 sec, [B]0 = 250, Replicates 1-3",0.0005592 and 0.0005485 and 0.0006085
same,second-order,"[2]; Time 5239 sec, [B]0 = 250, Replicates 1-3",0.0005708 and 0.0005619 and 0.0006247
same,second-order,"[2]; Time 5419 sec, [B]0 = 250, Replicates 1-3",0.0005891 and 0.0005723 and 0.0006371
same,second-order,"[2]; Time 5600 sec, [B]0 = 250, Replicates 1-3",0.0006027 and 0.0005925 and 0.000654
same,second-order,"[2]; Time 5781 sec, [B]0 = 250, Replicates 1-3",0.0006182 and 0.000611 and 0.0006672
same,second-order,"[2]; Time 5961 sec, [B]0 = 250, Replicates 1-3",0.0006343 and 0.000624 and 0.0006855
